Laboratory results taken from patent US12703729B2, “GIP agonist compounds and methods” (Zealand Pharma A/S, priority 2014, dated 2026).
Starred links: 1 amine or outer side, 2 acyl side, 3 side chain; linkers in the order of their positions; H or OH if unused. Non-standard residues stand in square brackets, D forms with d. Residues, ends and D or L forms follow the SMILES beside them. Groups on a side chain read outwards from the residue. *: point of attachment. C20 diacid = O=C(O)CCCCCCCCCCCCCCCCCCC(=O)*; γGlu = O=C(O)[C@H](CCC(=O)[*:2])N[*:1]; AEEA = NCCOCCOCC(=O)O; Aib = CC(C)(N)C(=O)O

Legend:
[1] = target: human GLP-1 receptor (GLP-1R) (Homo sapiens, UniProt P43220); assay: Activity assay at human GLP-1 receptor, cAMP induction (AlphaScreen), Example 3
[2] = target: T1, human GIP R (Homo sapiens, UniProt P48546); assay: cell-based
T1 sequence (P48546 22-466): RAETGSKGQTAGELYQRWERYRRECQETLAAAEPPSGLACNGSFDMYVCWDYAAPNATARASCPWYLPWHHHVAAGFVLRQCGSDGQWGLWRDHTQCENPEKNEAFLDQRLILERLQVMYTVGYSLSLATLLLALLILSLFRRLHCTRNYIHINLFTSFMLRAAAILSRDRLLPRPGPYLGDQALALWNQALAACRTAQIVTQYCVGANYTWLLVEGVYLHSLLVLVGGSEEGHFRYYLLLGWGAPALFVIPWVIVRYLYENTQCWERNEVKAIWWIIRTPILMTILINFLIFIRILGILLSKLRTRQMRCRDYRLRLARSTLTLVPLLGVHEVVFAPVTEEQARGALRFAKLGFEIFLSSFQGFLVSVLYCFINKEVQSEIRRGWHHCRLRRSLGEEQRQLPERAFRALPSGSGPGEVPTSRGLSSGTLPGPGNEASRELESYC

[3] = target: T2, human GIP receptor (GIP R) (Homo sapiens, UniProt P48546); assay: Activity assay at human GIP receptor, cAMP induction (AlphaScreen), Example 3
T2 sequence (P48546 22-466): T1 sequence (P48546 22-466)

human GLP-1 receptor (GLP-1R), sequence (P43220 24-463): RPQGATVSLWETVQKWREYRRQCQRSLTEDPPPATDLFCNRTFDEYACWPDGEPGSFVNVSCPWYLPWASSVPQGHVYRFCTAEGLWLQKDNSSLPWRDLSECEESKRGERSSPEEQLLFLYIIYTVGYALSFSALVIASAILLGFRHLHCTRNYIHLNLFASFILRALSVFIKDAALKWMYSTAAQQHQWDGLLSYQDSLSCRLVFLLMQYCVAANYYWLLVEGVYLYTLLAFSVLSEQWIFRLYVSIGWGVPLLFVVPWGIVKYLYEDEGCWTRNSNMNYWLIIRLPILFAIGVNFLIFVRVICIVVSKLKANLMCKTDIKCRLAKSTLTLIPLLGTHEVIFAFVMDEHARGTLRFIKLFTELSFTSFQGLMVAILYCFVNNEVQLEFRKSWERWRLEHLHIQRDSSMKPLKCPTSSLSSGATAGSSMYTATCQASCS

Row | SMILES | EC50 [1] [nM] | EC50 [2] [nM] | EC50 [3] [nM]
1 | CC[C@H](C)[C@H](NC(=O)[C@H](CCCCN)NC(=O)[C@H](CC(=O)O)NC(=O)[C@H](CC(C)C)NC(=O)[C@H](CCC(=O)O)NC(=O)[C@@H](NC(=O)[C@H](CO)NC(=O)[C@H](Cc1ccc(O)cc1)NC(=O)[C@H](CC(=O)O)NC(=O)[C@H](CO)NC(=O)[C@@H](NC(=O)[C@H](Cc1ccccc1)NC(=O)[C@@H](NC(=O)CNC(=O)[C@H](CCC(=O)O)NC(=O)C(C)(C)NC(=O)[C@@H](N)Cc1ccc(O)cc1)[C@@H](C)O)[C@@H](C)CC)[C@@H](C)CC)C(=O)N[C@@H](C)C(=O)N[C@@H](CCC(N)=O)C(=O)N[C@@H](CCCNC(=N)N)C(=O)N[C@@H](C)C(=O)N[C@@H](Cc1ccccc1)C(=O)N[C@H](C(=O)N[C@@H](CCC(=O)O)C(=O)N[C@@H](Cc1c[nH]c2ccccc12)C(=O)N[C@@H](CC(C)C)C(=O)N[C@@H](CC(C)C)C(=O)N[C@@H](C)C(=O)N[C@@H](CCC(N)=O)C(=O)NCC(=O)N1CCC[C@H]1C(=O)N[C@@H](CO)C(=O)N[C@@H](CO)C(=O)NCC(=O)N[C@@H](C)C(=O)N1CCC[C@H]1C(=O)N1CCC[C@H]1C(=O)N1CCC[C@H]1C(=O)N[C@@H](CO)C(=O)N[C@@H](CCCCNC(=O)COCCOCCNC(=O)COCCOCCNC(=O)CC[C@H](NC(=O)CCCCCCCCCCCCCCCCCCC(=O)O)C(=O)O)C(N)=O)[C@@H](C)CC [Compound 28] (H-Y[Aib]EGTFISDYSIELDKIAQRAFIEWLLAQGPSSGAPPPSK([AEEA-AEEA-γGlu-C20 diacid])-NH2) | > 3 | 0.007 | 0.013
2 | CC[C@H](C)[C@H](NC(=O)[C@H](CO)NC(=O)[C@H](Cc1ccc(O)cc1)NC(=O)[C@H](CC(=O)O)NC(=O)[C@H](CO)NC(=O)[C@@H](NC(=O)[C@H](Cc1ccccc1)NC(=O)[C@@H](NC(=O)CNC(=O)[C@H](CCC(=O)O)NC(=O)C(C)(C)NC(=O)[C@@H](N)Cc1ccc(O)cc1)[C@@H](C)O)[C@@H](C)CC)C(=O)N[C@@H](CCC(=O)O)C(=O)N[C@@H](CC(C)C)C(=O)N[C@@H](CC(=O)O)C(=O)N[C@@H](CCCCN)C(=O)N[C@@H](CCCCNC(=O)COCCOCCNC(=O)COCCOCCNC(=O)CC[C@H](NC(=O)CCCCCCCCCCCCCCCCCCC(=O)O)C(=O)O)C(=O)N[C@@H](C)C(=O)N[C@@H](C)C(=O)N[C@@H](CCC(N)=O)C(=O)N[C@@H](C)C(=O)N[C@@H](Cc1ccccc1)C(=O)N[C@H](C(=O)N[C@@H](CC(N)=O)C(=O)N[C@@H](Cc1c[nH]c2ccccc12)C(=O)N[C@@H](CC(C)C)C(=O)N[C@@H](CC(C)C)C(=O)N[C@@H](C)C(=O)NCC(=O)N1CCC[C@H]1C(=O)N[C@@H](CO)C(=O)N[C@@H](CO)C(=O)NCC(=O)N[C@@H](C)C(=O)N1CCC[C@H]1C(=O)N1CCC[C@H]1C(=O)N1CCC[C@H]1C(=O)N[C@@H](CO)C(N)=O)C(C)C [Compound 29] (H-Y[Aib]EGTFISDYSIELDKK([AEEA-AEEA-γGlu-C20 diacid])AAQAFVNWLLAGPSSGAPPPS-NH2) | > 100 | 0.014 | 0.007
3 | CC[C@H](C)[C@H](NC(=O)[C@H](CO)NC(=O)[C@H](Cc1ccc(O)cc1)NC(=O)[C@H](CC(=O)O)NC(=O)[C@H](CO)NC(=O)[C@@H](NC(=O)[C@H](Cc1ccccc1)NC(=O)[C@@H](NC(=O)CNC(=O)[C@H](CCC(=O)O)NC(=O)C(C)(C)NC(=O)[C@@H](N)Cc1ccc(O)cc1)[C@@H](C)O)[C@@H](C)CC)C(=O)N[C@@H](CCC(=O)O)C(=O)N[C@@H](CC(C)C)C(=O)N[C@@H](CC(=O)O)C(=O)N[C@@H](CCCCN)C(=O)N[C@@H](CCCCNC(=O)COCCOCCNC(=O)COCCOCCNC(=O)CC[C@H](NC(=O)CCCCCCCCCCCCCCCCCCC(=O)O)C(=O)O)C(=O)N[C@@H](C)C(=O)N[C@@H](C)C(=O)N[C@@H](CCC(N)=O)C(=O)N[C@@H](CC(=O)O)C(=O)N[C@@H](Cc1ccccc1)C(=O)N[C@H](C(=O)N[C@@H](CC(N)=O)C(=O)N[C@@H](Cc1c[nH]c2ccccc12)C(=O)N[C@@H](CC(C)C)C(=O)N[C@@H](CC(C)C)C(=O)N[C@@H](C)C(=O)N[C@@H](C)C(=O)NCC(=O)N1CCC[C@H]1C(=O)N[C@@H](CO)C(=O)N[C@@H](CO)C(=O)NCC(=O)N[C@@H](C)C(=O)N1CCC[C@H]1C(=O)N1CCC[C@H]1C(=O)N1CCC[C@H]1C(=O)N[C@@H](CO)C(N)=O)C(C)C [Compound 30] (H-Y[Aib]EGTFISDYSIELDKK([AEEA-AEEA-γGlu-C20 diacid])AAQDFVNWLLAAGPSSGAPPPS-NH2) | > 10 | 0.009 | 0.014
4 | CC[C@H](C)[C@H](NC(=O)[C@H](Cc1ccccc1)NC(=O)[C@H](CC(=O)O)NC(=O)[C@H](CCC(N)=O)NC(=O)[C@H](C)NC(=O)[C@H](C)NC(=O)[C@H](CCCCNC(=O)COCCOCCNC(=O)COCCOCCNC(=O)CC[C@H](NC(=O)CCCCCCCCCCCCCCCCCCC(=O)O)C(=O)O)NC(=O)[C@H](CCCCN)NC(=O)[C@H](CC(=O)O)NC(=O)[C@H](CC(C)C)NC(=O)[C@H](CCC(=O)O)NC(=O)[C@@H](NC(=O)[C@H](CO)NC(=O)[C@H](Cc1ccc(O)cc1)NC(=O)[C@H](CC(=O)O)NC(=O)[C@H](CO)NC(=O)[C@@H](NC(=O)[C@H](Cc1ccccc1)NC(=O)[C@@H](NC(=O)CNC(=O)[C@H](CCC(=O)O)NC(=O)C(C)(C)NC(=O)[C@@H](N)Cc1ccc(O)cc1)[C@@H](C)O)[C@@H](C)CC)[C@@H](C)CC)C(=O)N[C@@H](CC(N)=O)C(=O)N[C@@H](Cc1c[nH]c2ccccc12)C(=O)N[C@@H](CC(C)C)C(=O)N[C@@H](CC(C)C)C(=O)N[C@@H](C)C(=O)NCC(=O)N1CCC[C@H]1C(=O)N[C@@H](CO)C(=O)N[C@@H](CO)C(=O)NCC(=O)N[C@@H](C)C(=O)N1CCC[C@H]1C(=O)N1CCC[C@H]1C(=O)N1CCC[C@H]1C(=O)N[C@@H](CO)C(N)=O [Compound 31] (H-Y[Aib]EGTFISDYSIELDKK([AEEA-AEEA-γGlu-C20 diacid])AAQDFINWLLAGPSSGAPPPS-NH2) | > 100 | 0.012 | 0.009
5 | CC[C@H](C)[C@H](NC(=O)[C@H](Cc1ccccc1)NC(=O)[C@H](CC(=O)O)NC(=O)[C@H](CCC(N)=O)NC(=O)[C@H](C)NC(=O)[C@H](C)NC(=O)[C@H](CCCCNC(=O)COCCOCCNC(=O)COCCOCCNC(=O)CC[C@H](NC(=O)CCCCCCCCCCCCCCCCCCC(=O)O)C(=O)O)NC(=O)[C@H](CCCCN)NC(=O)[C@H](CC(=O)O)NC(=O)[C@H](CC(C)C)NC(=O)[C@H](CCC(=O)O)NC(=O)[C@@H](NC(=O)[C@H](CO)NC(=O)[C@H](Cc1ccc(O)cc1)NC(=O)[C@H](CC(=O)O)NC(=O)[C@H](CO)NC(=O)[C@@H](NC(=O)[C@H](Cc1ccccc1)NC(=O)[C@@H](NC(=O)CNC(=O)[C@H](CCC(=O)O)NC(=O)C(C)(C)NC(=O)[C@@H](N)Cc1ccc(O)cc1)[C@@H](C)O)[C@@H](C)CC)[C@@H](C)CC)C(=O)N[C@@H](CCC(=O)O)C(=O)N[C@@H](Cc1c[nH]c2ccccc12)C(=O)N[C@@H](CC(C)C)C(=O)N[C@@H](CC(C)C)C(=O)N[C@@H](C)C(=O)NCC(=O)N1CCC[C@H]1C(=O)N[C@@H](CO)C(=O)N[C@@H](CO)C(=O)NCC(=O)N[C@@H](C)C(=O)N1CCC[C@H]1C(=O)N1CCC[C@H]1C(=O)N1CCC[C@H]1C(=O)N[C@@H](CO)C(N)=O [Compound 32] (H-Y[Aib]EGTFISDYSIELDKK([AEEA-AEEA-γGlu-C20 diacid])AAQDFIEWLLAGPSSGAPPPS-NH2) | > 100 | 0.02 | 0.012
6 | CC[C@H](C)[C@H](NC(=O)[C@H](CCCCNC(=O)COCCOCCNC(=O)COCCOCCNC(=O)CC[C@H](NC(=O)CCCCCCCCCCCCCCCCCCC(=O)O)C(=O)O)NC(=O)[C@H](CC(=O)O)NC(=O)[C@H](CC(C)C)NC(=O)[C@H](CCC(=O)O)NC(=O)[C@@H](NC(=O)[C@H](CO)NC(=O)[C@H](Cc1ccc(O)cc1)NC(=O)[C@H](CC(=O)O)NC(=O)[C@H](CO)NC(=O)[C@@H](NC(=O)[C@H](Cc1ccccc1)NC(=O)[C@@H](NC(=O)CNC(=O)[C@H](CCC(=O)O)NC(=O)C(C)(C)NC(=O)[C@@H](N)Cc1ccc(O)cc1)[C@@H](C)O)[C@@H](C)CC)[C@@H](C)CC)C(=O)N[C@@H](C)C(=O)N[C@@H](CCC(N)=O)C(=O)N[C@@H](CCCNC(=N)N)C(=O)N[C@@H](C)C(=O)N[C@@H](Cc1ccccc1)C(=O)N[C@H](C(=O)N[C@@H](CCC(=O)O)C(=O)N[C@@H](Cc1c[nH]c2ccccc12)C(=O)N[C@@H](CC(C)C)C(=O)N[C@@H](CC(C)C)C(=O)N[C@@H](C)C(=O)N[C@@H](CCC(N)=O)C(=O)NCC(=O)N1CCC[C@H]1C(=O)N[C@@H](CO)C(=O)N[C@@H](CO)C(=O)NCC(=O)N[C@@H](C)C(=O)N1CCC[C@H]1C(=O)N1CCC[C@H]1C(=O)N1CCC[C@H]1C(=O)N[C@@H](CO)C(N)=O)[C@@H](C)CC [Compound 34] (H-Y[Aib]EGTFISDYSIELDK([AEEA-AEEA-γGlu-C20 diacid])IAQRAFIEWLLAQGPSSGAPPPS-NH2) | > 10 | 0.011 | 0.017
